From patent US11001584B2, “Polymorphs” (SYNGENTA PARTICIPATIONS AG, priority 2016, dated 2021)

Test: Stability of polymorphs: equal amounts of both polymorphs stirred in IPA, form determined by DSC and high throughput pXRD
Assay type: physicochemical
Conditions: 24 hours
Method: Equal amounts of the polymorph of the invention and the Reference Form A polymorph were stirred in IPA at a range of temperatures. After 24 hours, the crystals were isolated and dried and their polymorphic form determined by DSC and high throughput pXRD.

Compound	DSC curves of the isolated crystals (polymorphic form present) (equal amounts of polymorph of the invention and Reference Form A stirred in IPA at a range of temperatures)	Powder XRD patterns of the isolated crystals (polymorphic form present) (equal amounts of polymorph of the invention and Reference Form A stirred in IPA, room temperature, 40° C. and 50° C.)	Relative polymorphic stability (stirred with Reference Form A in IPA, room temperature up to 50° C.)
CCOC(=O)OC1=C(c2c(C)cc(Cl)cc2C)C(=O)N(C)C12CCN(OC)CC2 [Reference Form A]	marked reduction in the presence of Reference Form A	reflections characteristic of Reference Form A were absent	
CCOC(=O)OC1=C(c2c(C)cc(Cl)cc2C)C(=O)N(C)C12CCN(OC)CC2 [polymorph of the invention]			the stable form over the temperature range studied
